These are literature values, as cited in US10024828B2, “Adsorbent and analysis method using same” (Hitachi High-Technologies Corporation, priority 2013, dated 2018).

The conditions of this series: source not stated (calculated or measured value).

Take `Nc1ccn([C@@H]2O[C@H](CO)[C@@H](O)C2(F)F)c(=O)n1` [gemcitabine]: the “log P (octanol-water partition coefficient)” value (from here on “log P”) is 0.14.

With `CN(Cc1cnc2nc(N)nc(N)c2n1)c1ccc(C(=O)N[C@@H](CCC(=O)O)C(=O)O)cc1` [methotrexate], the “log P” value is −0.91.

In the case of `O=c1[nH]cc(F)c(=O)[nH]1` [5-fluorouracil], the “log P” value was −0.57.
